Measured values from article PMC8268887, “Peptide/β-Peptoid Hybrids with Ultrashort PEG-Like Moieties: Effects on Hydrophobicity, Antibacterial Activity and Hemolytic Properties” (International Journal of Molecular Sciences, 2021).

How the values were obtained:
[1] = Estimation of log D values (n-octanol/PBS pH 7.4, LC-MS, log Dmax from LOQ); type: physicochemical; details: n-octanol/PBS pH 7.4, 25 °C; indicative threshold from LOQ in octanol phase
Protocol: A phosphate buffered saline (PBS) pH 7.4 was prepared and then saturated with n-octanol. Likewise, an n-octanol solution saturated with pH 7.4 PBS buffer was also prepared. Both solutions were shaken for 24 h, and then left for 24 h in a separating funnel to ensure complete separation of the two phases. This provided an aqueous phase (PBS buffer saturated with n-octanol) and an n-octanol phase (saturated with PBS buffer).
Samples for log D determination were prepared as following: All compounds were dissolved in PBS buffer at a concentration 4 mg/mL, which was used as stock solutions. PBS-saturated n-octanol (1.0 mL), n-octanol-saturated PBS (0.76 mL) and sample stock solution (0.24 mL) were placed into a 4-mL clear glass vial and incubated on Biosan Thermo Shaker TS-100 at 1000 rpm and 25 °C. For optimization of the assay, the incubation time was varied from 5 h to 48 h. […] After incubation samples were centrifugated and left for 30 min to ensure complete separation of the phases. The distribution coefficient was determined by quantification of the compounds both in the aqueous and n-octanol phases. Then, 100 µL of each phase were transferred to 1.5 mL champagne glass vial and evaporated using a GeneVac EZ-2 PLUS evaporation instrument. Before LC-MS analysis samples were diluted with 200 µL MeCN–0.1% aqueous formic acid (1:1, v/v).
LC-MS was performed on Acquity UPLC chromatograph coupled with a MICROMASS QUATTRO micro^TM API tandem mass spectrometer. The mass spectrometer was operated in positive electrospray ionisation mode. Parameter settings were as follows: desolvation gas (N2) flow was 600 L/h; desolvation gas temperature was 400 °C; capillary voltage, 3.30 kV; ion source temperature was 120 °C. Initial data acquisition was carried out in full-scan mode to select the most abundant ions of the individual compounds.
Waters Acquity UPLC column BEH C18 (2.1 × 50 mm, 1.7 µm particle size) was applied for analysis. Acetonitrile and 0.1% aqueous formic acid mixtures were used as mobile phase at a flow rate of 0.4 mL/min with the following gradient: 0.0–2.5 min 5–98% MeCN, 2.5–3.5 min 98% MeCN. Injection volume was 2 µL.
Limit of quantitation (LOQ) was determined using S/N ratio for each compound and used for log Dmax calculations according to the following equation:(2) log Dmax = log (theoretical peak area of n-octanol phase at LOQ concentration/peak area of buffer base) Theoretical peak area at LOQ was calculated according to the calibration curve for each compound.

[2] = Determination of hemolytic activity; type: cell-based; details: red blood cell suspension in PBS buffer, human red blood cells at 400 µg/mL, 37 °C
Protocol: The lysis of human red blood cells was measured almost as previously described, albeit with modifications. In brief, a suspension of freshly drawn human red blood cells (hRBCs) was washed three times with PBS buffer and centrifuged two times for 5 min at 2500 rpm. A two-fold serial dilution of compounds in PBS buffer was prepared. Plates (conical-bottomed 96-well plates) with three replicate wells per dilution, each containing 1% red blood cell suspension, were prepared and dosed with the test compound to achieve a final concentration of 400 μg/mL in a total volume of 100 μL. The plates were incubated (37 °C) for 60 min with mild agitation, and then the cells were pelleted by centrifugation at 1500 rpm for 5 min. The supernatants (50 μL) were then transferred to a fresh 96-well plate, and the concentration of hemoglobin was detected by measuring the OD at 405 nm. The OD of cells incubated with 1% SDS defined 100% hemolysis, while the OD of cells incubated with PBS buffer defined 0% hemolysis. The concentration tested was 400 μg/mL (only average values are stated in Table 5). The percent hemolysis was calculated by using the formula:(3) Hemolysis (%)=100×[Asample−Aneg.control/Apos.control−Aneg.control]

| SMILES | log Dmax [1] | hemolysis at 60 min [2] |
| --- | --- | --- |
| NCCCC[C@H](NC(=O)CCN(Cc1ccc(F)cc1)C(=O)[C@H](CCCCN)NC(=O)CCN(Cc1ccc(F)cc1)C(=O)[C@H](CCCCN)NC(=O)COCCN)C(=O)N(CCC(=O)NCCOCC(=O)N[C@@H](CCCCN)C(=O)N(CCC(=O)N[C@@H](CCCCN)C(=O)N(CCC(=O)N[C@@H](CCCCN)C(=O)N(CCC(=O)NCCOCC(N)=O)Cc1ccc(F)cc1)Cc1ccc(F)cc1)Cc1ccc(F)cc1)Cc1ccc(F)cc1 [Compound 11, H-sPEG1-[X]3-sPEG1-[X]3-sPEG1-NH2] | < −2.876 | 4.6% |
| NCCCC[C@H](NC(=O)CCN(Cc1ccc(F)cc1)C(=O)[C@H](CCCCN)NC(=O)CCN(Cc1ccc(F)cc1)C(=O)[C@H](CCCCN)NC(=O)CCOCCOCCOCCOCCOCCOCCNC(=O)CCN(Cc1ccc(F)cc1)C(=O)[C@H](CCCCN)NC(=O)CCN(Cc1ccc(F)cc1)C(=O)[C@H](CCCCN)NC(=O)CCN(Cc1ccc(F)cc1)C(=O)[C@@H](N)CCCCN)C(=O)N(CCC(N)=O)Cc1ccc(F)cc1 [Compound 10, H-[X]3-sPEG6-[X]3-NH2] | < −2.994 | 6.3% |
| NCCCC[C@H](NC(=O)CCN(Cc1ccc(F)cc1)C(=O)[C@H](CCCCN)NC(=O)CCN(Cc1ccc(F)cc1)C(=O)[C@H](CCCCN)NC(=O)COCCOCCN)C(=O)N(CCC(=O)NCCOCCOCC(=O)N[C@@H](CCCCN)C(=O)N(CCC(=O)N[C@@H](CCCCN)C(=O)N(CCC(=O)N[C@@H](CCCCN)C(=O)N(CCC(=O)NCCOCCOCC(N)=O)Cc1ccc(F)cc1)Cc1ccc(F)cc1)Cc1ccc(F)cc1)Cc1ccc(F)cc1 [Compound 12, H-sPEG2-[X]3-sPEG2-[X]3-sPEG2-NH2] | < −3.147 | 8.1% |
| NCCCC[C@H](NC(=O)CCN(Cc1ccc(F)cc1)C(=O)[C@H](CCCCN)NC(=O)CCN(Cc1ccc(F)cc1)C(=O)[C@H](CCCCN)NC(=O)CCN(Cc1ccc(F)cc1)C(=O)[C@H](CCCCN)NC(=O)CCN(Cc1ccc(F)cc1)C(=O)[C@H](CCCCN)NC(=O)CCN(Cc1ccc(F)cc1)C(=O)[C@@H](N)CCCCN)C(=O)N(CCC(N)=O)Cc1ccc(F)cc1 [Compound 1, H-[Lys-βNPhe(4-F)]6-NH2] | < −2.662 | 6.6% |
| NCCCC[C@H](NC(=O)CCN(Cc1ccc(F)cc1)C(=O)[C@H](CCCCN)NC(=O)CCN(Cc1ccc(F)cc1)C(=O)[C@H](CCCCN)NC(=O)CCOCCOCCOCCOCCNC(=O)CCN(Cc1ccc(F)cc1)C(=O)[C@H](CCCCN)NC(=O)CCN(Cc1ccc(F)cc1)C(=O)[C@H](CCCCN)NC(=O)CCN(Cc1ccc(F)cc1)C(=O)[C@@H](N)CCCCN)C(=O)N(CCC(N)=O)Cc1ccc(F)cc1 [Compound 9, H-[X]3-sPEG4-[X]3-NH2] | < −3.627 | 7.1% |
| NCCCC[C@H](NC(=O)CCN(Cc1ccc(F)cc1)C(=O)[C@H](CCCCN)NC(=O)CCN(Cc1ccc(F)cc1)C(=O)[C@H](CCCCN)NC(=O)COCCOCCNC(=O)CCN(Cc1ccc(F)cc1)C(=O)[C@H](CCCCN)NC(=O)CCN(Cc1ccc(F)cc1)C(=O)[C@H](CCCCN)NC(=O)CCN(Cc1ccc(F)cc1)C(=O)[C@@H](N)CCCCN)C(=O)N(CCC(N)=O)Cc1ccc(F)cc1 [Compound 7, H-[X]3-sPEG2-[X]3-NH2] | < −3.650 | 6.1% |

Second part, led by results:

| log Dmax [1] | SMILES | hemolysis at 60 min [2] |
| --- | --- | --- |
| < −3.911 | NCCCC[C@H](NC(=O)CCN(Cc1ccc(F)cc1)C(=O)[C@H](CCCCN)NC(=O)CCN(Cc1ccc(F)cc1)C(=O)[C@H](CCCCN)NC(=O)COCCOCCOCCN)C(=O)N(CCC(=O)NCCOCCOCCOCC(=O)N[C@@H](CCCCN)C(=O)N(CCC(=O)N[C@@H](CCCCN)C(=O)N(CCC(=O)N[C@@H](CCCCN)C(=O)N(CCC(=O)NCCOCCOCCOCC(N)=O)Cc1ccc(F)cc1)Cc1ccc(F)cc1)Cc1ccc(F)cc1)Cc1ccc(F)cc1 [Compound 13, H-sPEG3-[X]3-sPEG3-[X]3-sPEG3-NH2] | 7.8% |
| < −2.883 | NCCCC[C@H](NC(=O)CCN(Cc1ccc(F)cc1)C(=O)[C@H](CCCCN)NC(=O)CCN(Cc1ccc(F)cc1)C(=O)[C@H](CCCCN)NC(=O)CCOCCOCCOCCOCCN)C(=O)N(CCC(=O)NCCOCCOCCOCCOCCC(=O)N[C@@H](CCCCN)C(=O)N(CCC(=O)N[C@@H](CCCCN)C(=O)N(CCC(=O)N[C@@H](CCCCN)C(=O)N(CCC(=O)NCCOCCOCCOCCOCCC(N)=O)Cc1ccc(F)cc1)Cc1ccc(F)cc1)Cc1ccc(F)cc1)Cc1ccc(F)cc1 [Compound 14, H-sPEG4-[X]3-sPEG4-[X]3-sPEG4-NH2] | 9% |
| < −3.922 | NCCCC[C@H](NC(=O)CCN(Cc1ccc(F)cc1)C(=O)[C@H](CCCCN)NC(=O)COCCOCCNC(=O)CCN(Cc1ccc(F)cc1)C(=O)[C@H](CCCCN)NC(=O)CCN(Cc1ccc(F)cc1)C(=O)[C@H](CCCCN)NC(=O)COCCOCCNC(=O)CCN(Cc1ccc(F)cc1)C(=O)[C@H](CCCCN)NC(=O)CCN(Cc1ccc(F)cc1)C(=O)[C@@H](N)CCCCN)C(=O)N(CCC(N)=O)Cc1ccc(F)cc1 [Compound 16, H-[X]2-sPEG2-[X]2-sPEG2-[X]2-NH2] | 5.7% |
| < −3.180 | NCCCC[C@H](NC(=O)CCN(Cc1ccc(F)cc1)C(=O)[C@H](CCCCN)NC(=O)COCCNC(=O)CCN(Cc1ccc(F)cc1)C(=O)[C@H](CCCCN)NC(=O)CCN(Cc1ccc(F)cc1)C(=O)[C@H](CCCCN)NC(=O)COCCNC(=O)CCN(Cc1ccc(F)cc1)C(=O)[C@H](CCCCN)NC(=O)CCN(Cc1ccc(F)cc1)C(=O)[C@@H](N)CCCCN)C(=O)N(CCC(N)=O)Cc1ccc(F)cc1 [Compound 15, H-[X]2-sPEG1-[X]2-sPEG1-[X]2-NH2] | 4.8% |
